Consider eleven compounds from patent publication US11028054B2, “1, 4, 6-trisubstituted-2-alkyl-1H-benzo[d]imidazole derivatives as dihydroorotate oxygenase inhibitors” (Merck Patent GmbH, priority 2017, dated 2021).

Experiment [1] deals with T1, DHODH (Homo sapiens (Human), UniProt Q02127). As to the kind of experiment: Measurement of DHODH inhibitory enzyme activity (coupled DCIP reduction assay). The format is biochemical. The source says:
Measurement of DHODH Inhibitory Enzyme Activity (In Vitro Assays)
The DHODH activity assay is a coupled enzyme assay in which oxidation of DHO and subsequent reduction of ubiquinone are stoichiometrically equivalent to the reduction of DCIP ([…]). The reduction of DCIP is accompanied by a loss of absorbance at 610 nm.
Reagents used: L-Dihydroorotic acid, Sigma, D7128, 2,6-Dichloroindophenol sodium salt hydrate, sigma, D1878 Dimethyl sulfoxide (DMSO), spectroscopic grade purchased from Spectrochem, cat no. 0704209, B. no.—3183650 Decylubiquinone, Sigma, D7911.
Preparation of Solutions/Reagents:
Buffer Preparation: 50 mM tris HCl, 150 mM KCl, and pH 8.0, 0.8% triton.
L-Dihydroorotic acid stock solution of 20 mM in buffer.
2, 6-Dichloroindophenol Sodium salt hydrate stock solution of 20 mM in buffer.
Decylubiquinone stock solution of 20 mM in buffer.
5 μL of Dimethyl sulfoxide or a compound of formula (I) in DMSO solution was added to the wells of a 96 well plate. Compounds of formula (I) were measured at 10 μM.
Protein along with buffer was added, so that the total volume including the DMSO was 87 μL. Compound and protein were incubated for half an hour at room temperature after mixing. 5 μL of 20 mM solution of L-Dihydroorotic acid, 5 μL of 2 mM solution of Decylubiquinone and 3 μL of 2 mM solution of 2, 6-Dichloroindophenol sodium salt hydrate were added to the above solution (total assay volume 100 μL). The mixture was stirred for 2 min and absorbance was recorded at every 10 min at 610 nanometers.
Percent inhibition is calculated as follows 100*{(Abs610 for reaction containing compound)−(Abs610 for positive control) (Abs610 for no enzyme reaction)−(Abs610 for positive control) Reaction containing compound has compound, buffer, enzyme and substrates Positive control contains DMSO, buffer, enzyme and substrates No Enzyme reaction contains DMSO, buffer and substrates IC50 determination: A 2 mM DMSO stock solution of the selected 1, 4, 6-trisubstituted-2-alkyl-1H-benzo[d]imidazole derivatives of formula (I) of the present invention to be examined was prepared. Subsequent ⅓rd dilutions were made as follows:
5 μL of each stock of compound of formula (I) (solution indicated in column 4 of table) was used for each 100 μL assay. Therefore, 5 μL of the 2 mM stock provided 100 μL of 100 μM solution of compound of formula (I), when made up with buffer, protein and substrate. See also: Ulrich et al. (2001) Eur. J. Biochem. 268, 1861-1868.

The test system of a further experiment is Jurkat cells. Description: Measurement of cell proliferation activity (Jurkat cell), XTT assay. The experiment is classed as cell-based. Particulars: Homo sapiens, 72 hrs incubation, cell viability by XTT assay. The source says: Measurement of Cell Proliferation Activity (Jurkat Cell)
Jurkat cells are an immortalized cell line of T lymphocyte cells, which are used to study acute T cell leukaemia, T cell signalling, and the expression of various chemokine receptors susceptible to viral entry, particularly HIV. Jurkat cells are also useful in science because of their ability to produce interleukin 2. Their primary use, however, is to determine the mechanism of differential susceptibility of cancers to drugs and radiation.
Jurkat cells are cultured in RPMI medium with 10% FBS, and seeded at a density of 100,000 cells per well in a 96 well plate. Compound is added at different concentrations (typically starting at 10 μM followed by half log dilutions for a total of 8-10 concentrations). Each concentration is tested in triplicate and DMSO concentration is kept constant at 0.25-0.5%. The cells are then incubated in a CO2 incubator at 37° C. for 72 hrs before determining cell viability using XTT assay. Cell viability is plotted as a function of concentration and EC50 is determined using GraphPad Prism software
• Roehm, N et al [1991] An improved colorimetric assay for cell proliferation and viability utilizing the tetrazolium salt XTT. J. Immunol. Methods 142:257-265. Reagents: Roswells park memorial institute's medium, (RPMI-1640 complete media) pH-7.4±0.2 (Sigma R6504). • Dimethyl sulfoxide (DMSO), spectroscopic grade purchased from Spectrochem, (cat no. 0704209, B. no.—3183650 MEM Cat. No. M0268, Sigma). Fetal Bovine Serum (Cat. No. F9665, Sigma Aldrich). XTT sodium salt (Sigma Cat. No. X4251). PMS (Sigma Cat. No. 68600). Preparation of Solutions/Reagents
RPMI media supplemented with antibiotics, 10% FBS, Sodium Pyruvate and NEA (non essential amino acids).
XTT—A freshly prepared solution of XTT is made in the growth medium, with a final concentration of 1 mg/ml.
PMS—Stock is prepared with 1×PBS at 0.383 mg/ml and stored in aliquots at −20° C. The XTT solution at 20 μl/ml was added just before use.
Test solution—Serially diluted DMSO solutions are further diluted with media to 2× the required concentration in well.
Culture Jurkat cells in T-25 flasks at a density of 0.2×10^6/ml 2-3 days before the day of experiment set up.
Centrifuge Jurkat T-cell suspension at 1200 rpm for 10 minutes and resuspend cells again in fresh RPMI medium with 10% FBS. Count the cells and dilute suspension to a density of 2×10^6 cells/ml. Seed 50 μL of this suspension in each well of a 96 well plate (100,000 cells per well). Keep the edges of the plate empty to avoid evaporation. […]
XTT assay: to each well, add 50 μL of 1 mg/ml XTT solution with 20 μl of PMS/mL. Read the plates after 2 hours at 465 nm using the spectrophotometer. XTT reading for media without cells is used as background reading. […]

In experiment [2] the target is T1, DHODH. Particulars: DHODH versus protein tyrosine kinase; cited from earlier work.

T1 sequence (Q02127 whole entry): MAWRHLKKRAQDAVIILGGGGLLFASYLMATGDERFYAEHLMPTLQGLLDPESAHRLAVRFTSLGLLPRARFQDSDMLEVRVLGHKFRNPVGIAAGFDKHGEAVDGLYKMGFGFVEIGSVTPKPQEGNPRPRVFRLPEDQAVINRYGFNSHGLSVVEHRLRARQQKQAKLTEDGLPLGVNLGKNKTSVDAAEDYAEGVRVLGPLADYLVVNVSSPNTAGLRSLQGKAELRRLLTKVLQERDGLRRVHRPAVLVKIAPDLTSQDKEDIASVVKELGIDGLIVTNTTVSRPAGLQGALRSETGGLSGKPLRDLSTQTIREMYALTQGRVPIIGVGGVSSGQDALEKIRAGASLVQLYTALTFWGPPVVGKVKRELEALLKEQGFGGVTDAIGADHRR

For orientation: IC50 means the concentration that inhibits the measured activity by half. A lower IC50 goes with higher potency. The term EC50 denotes the midpoint of the concentration-response curve. Read a low EC50 as an effect from little substance. On to `Cc1nc2c(C(=O)O)cc(-c3ccc(-c4ccccc4)cc3)cc2[nH]1` [Example 1, 6-([1,1'-biphenyl]-4-yl)-2-methyl-1H-benzo[d]imidazole-4-carboxylic acid], for which, at DHODH [1], the IC50 is 10 to 99 nM. The midpoint of the response in the experiment with Jurkat cells, the EC50, lay at 133 nM.
On to `C/C(O)=C(\C#N)C(=O)Nc1ccc(C(F)(F)F)cc1` [Teriflunomide], for which the “fold greater inhibitor of DHODH than of protein tyrosine kinase” value on DHODH [2] is given as 100-1,000 fold.
For `COc1ccccc1-c1ccc(-c2cc(C(=O)O)c3nc(C)[nH]c3c2)cc1` [Example 18, 6-(2'-methoxy-[1,1'-biphenyl]-4-yl)-2-methyl-1H-benzo[d]imidazole-4-carboxylic acid], on DHODH [1], the IC50 lay in the range of 10 to 99 nM. In addition, the EC50 in the experiment with Jurkat cells was 111 nM.
The matching figures for `Cc1nc2c(C(=O)O)cc(-c3ccc(-c4ccccc4F)cc3)cc2[nH]1` [Example 5, 6-(2'-fluoro-[1,1'-biphenyl]-4-yl)-2-methyl-1H-benzo[d]imidazole-4-carboxylic acid]: 10 to 99 nM and 49 nM.
The matching figures for `COc1cccc(-c2ccc(-c3cc(C(=O)O)c4nc(C)[nH]c4c3)cc2)c1` [Example 10, 6-(3'-methoxy-[1,1'-biphenyl]-4-yl)-2-methyl-1H-benzo[d]imidazole-4-carboxylic acid]: 10 to 99 nM and 32 nM.
In the case of `Cc1nc2c(C(=O)O)cc(-c3ccc(-c4cccc(CNC(C)(C)C)c4)cc3)cc2[nH]1` [Example 39, 6-(3'-((tert-butylamino)methyl)-[1,1'-biphenyl]-4-yl)-2-methyl-1H-benzo[d]imidazole-4-carboxylic acid.2,2,2-trifluoroacetic acid], the IC50 at DHODH [1] was in the range of 10 to 99 nM.
As for `Cc1nc2c(C(=O)O)cc(-c3c(F)c(F)c(-c4ccc(CN5CCCCC5)cc4)c(F)c3F)cc2[nH]1` [Example 61, 2-methyl-6-(2,3,5,6-tetrafluoro-4'-(piperidin-1-ylmethyl)-[1,1'-biphenyl]-4-yl)-1H-benzo[d]imidazole-4-carboxylic acid.2,2,2-trifluoroacetic acid], the IC50 at DHODH [1] was in the range of 1 to 9.9 nM.
Still for that read-out and setting: next, `Cc1nc2c(C(=O)O)cc(-c3c(F)c(F)c(-c4cccc(CNC(C)C)c4)c(F)c3F)cc2[nH]1` [Example 59, 2-methyl-6-(2,3,5,6-tetrafluoro-3'-((isopropylamino)methyl)-[1,1'-biphenyl]-4-yl)-1H-benzo[d]imidazole-4-carboxylic acid.2,2,2-trifluoroacetic acid]: 10 to 99 nM.
Same read-out and setting: next, `Cc1nc2c(C(=O)O)cc(-c3ccc(-c4ccccc4CN4CCCCC4)cc3)cc2[nH]1` [Example 42, 2-methyl-6-(2'-(piperidin-1-ylmethyl)-[1,1'-biphenyl]-4-yl)-1H-benzo[d]imidazole-4-carboxylic acid.2,2,2-trifluoroacetic acid]: 10 to 99 nM; `Cc1nc2c(C(=O)O)cc(-c3ccc(-c4ccccc4CN4CCOCC4)cc3)cc2[nH]1` [Example 45, 2-methyl-6-(2'-(morpholinomethyl)-[1,1'-biphenyl]-4-yl)-1H-benzo[d]imidazole-4-carboxylic acid.2,2,2-trifluoroacetic acid]: 10 to 99 nM.
For the compound `Cc1nc2c(C(=O)O)cc(-c3ccc(-c4ccccc4OCc4ccccc4)cc3)cc2[nH]1` [Example 17, 6-(2'-(benzyloxy)-[1,1'-biphenyl]-4-yl)-2-methyl-1H-benzo[d]imidazole-4-carboxylic acid], the IC50 on DHODH [1] lay within 10 to 99 nM.
